Assay [1] has as its target Human CB1 Receptor-1b (hCB1b) (Homo sapiens (Human), UniProt P21554). The assay is described as follows: hCB1b Gai cyclic AMP (cAMP) TR-FRET assay, antagonism of EC80 CP55940 with forskolin. As to conditions: hCB1b cells, 30 min pre-incubation, read-out: CB1b IC50. Type of assay: cell-based. How it is done: (§1) Example 3. Biochemical Methods Human CB1 Receptor-1 (hCB1) and Human CB1 Receptor-1b (hCBib)
(§2) hCB1/hCB1 b Gai Cyclic AMP (cAMP) Assays: Cells were seeded in a 384-well plate at an appropriate density from frozen cells. The cAMP assays were performed according to the manufacturer's protocol using MULTISCREEN™ TR-FRET cAMP 1.0 No Wash Assay Kit. Cells (hCB1 or hCB1 b) were pre-incubated with customer compounds for 30 minutes at rt followed by addition of EC80 CP55940 concentration and Forskolin. Cells were then incubated for 20 minutes at 37C. The reaction was terminated by sequentially adding sequentially adding MULTISCREEN™ Eu-labeled cAMP and MULTISCREEN™ 650-labeled anti-cAMP antibody in lysis buffer. The plate was then incubated at rt for 30 minutes before reading fluorescent emissions at 620 nm and 665 with excitation at 314 nm on FlexStation III (Molecular Devices). The results are shown in Table 2 (“***” denotes an IC50<100 nM; “**” denotes an IC50 between 100 nM and 500 nM, and “*” denotes an IC50>500 nM).
In general terms: Time-resolved FRET reads energy transfer from a long-lived donor to a nearby acceptor.

Assay [2] deals with Human CB1 Receptor-1 (hCB1) (Homo sapiens (Human), UniProt P21554). The experiment in a line: hCB1 Gai cyclic AMP (cAMP) TR-FRET assay, antagonism of EC80 CP55940 with forskolin. As to conditions: hCB1 cells, 30 min pre-incubation. It is filed as cell-based. How it is done: as §1, §2

pIC50: −log10 of the molar value.

Human CB1 Receptor-1b (hCB1b), sequence (P21554 other isoform, or with tags, fused parts or gaps): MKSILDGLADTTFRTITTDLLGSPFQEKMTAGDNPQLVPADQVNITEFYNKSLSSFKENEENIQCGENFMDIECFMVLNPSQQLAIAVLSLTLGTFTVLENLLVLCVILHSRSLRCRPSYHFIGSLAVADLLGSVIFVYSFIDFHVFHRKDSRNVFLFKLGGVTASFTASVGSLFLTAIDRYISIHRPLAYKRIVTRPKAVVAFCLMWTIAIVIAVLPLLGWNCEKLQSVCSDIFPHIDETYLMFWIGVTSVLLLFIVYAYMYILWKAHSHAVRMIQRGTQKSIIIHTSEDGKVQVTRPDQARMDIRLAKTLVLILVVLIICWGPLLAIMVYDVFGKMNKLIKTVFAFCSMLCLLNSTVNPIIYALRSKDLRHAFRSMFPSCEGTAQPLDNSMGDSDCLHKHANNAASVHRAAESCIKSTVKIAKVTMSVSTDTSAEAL
Human CB1 Receptor-1 (hCB1), sequence (P21554 whole entry): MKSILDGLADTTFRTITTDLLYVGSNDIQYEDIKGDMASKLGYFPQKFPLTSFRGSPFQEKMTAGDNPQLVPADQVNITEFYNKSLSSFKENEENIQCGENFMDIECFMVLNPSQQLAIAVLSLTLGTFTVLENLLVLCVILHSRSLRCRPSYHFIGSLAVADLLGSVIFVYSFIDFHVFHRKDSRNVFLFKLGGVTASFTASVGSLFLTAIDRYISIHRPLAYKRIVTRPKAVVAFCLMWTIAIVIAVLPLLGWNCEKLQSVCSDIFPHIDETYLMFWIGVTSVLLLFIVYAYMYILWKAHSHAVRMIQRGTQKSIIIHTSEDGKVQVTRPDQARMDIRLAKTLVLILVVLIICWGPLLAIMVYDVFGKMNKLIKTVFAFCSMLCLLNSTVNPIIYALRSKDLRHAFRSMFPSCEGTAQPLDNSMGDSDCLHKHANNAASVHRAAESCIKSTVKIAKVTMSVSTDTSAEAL

`NS(=O)(=O)[C@H]1C[C@H](N/C(=N/S(=O)(=O)c2ccc(Cl)cc2)N2C[C@H](c3ccccc3)C(c3ccc(F)cc3)=N2)C1` (single isomer, unassigned) [Compound 127]: the pIC50 in assay [1] and in assay [2] was 6.30 to 7.00 each time.
As for `NS(=O)(=O)CCNC(=NS(=O)(=O)c1cccnc1)N1C[C@H](c2ccccc2)C(c2ccc(F)cc2)=N1` [Compound 69, (S)-3-(4-fluorophenyl)-4-phenyl-N′-(pyridin-3-ylsulfonyl)-N-(2-sulfamoylethyl)-4,5-dihydro-1H-pyrazole-1-carboximidamide], the pIC50 in assay [1] and in assay [2] was below 6.30 each time.
`C[C@@H](CS(N)(=O)=O)NC(=NS(=O)(=O)c1ccc(Cl)cc1)N1C[C@H](c2ccccc2)C(c2ccc(F)cc2)=N1` (single isomer, unassigned) [Compound 61]: the pIC50 in assay [1] and in assay [2] was 6.30 to 7.00 in each case.
Take `CC(CN/C(=N\S(=O)(=O)c1ccc(Cl)cc1)N1C[C@H](c2ccccc2)C(c2ccc(Cl)cc2)=N1)NS(N)(=O)=O` (stereo partly drawn) [Compound 185, (4S,E)-3-(4-chlorophenyl)-N′-((4-chlorophenyl)sulfonyl)-4-phenyl-N-(2-(sulfamoylamino)propyl)-4,5-dihydro-1H-pyrazole-1-carboximidamide]: the figures for the pIC50 in assay [1] and in assay [2] were above 7.00 and 6.30 to 7.00, respectively.
The like results for `C[C@H](CS(N)(=O)=O)N/C(=N\S(=O)(=O)c1ccc(C(F)(F)F)cc1)N1C[C@H](c2ccccc2)C(c2ccc(Cl)cc2)=N1` [Compound 23, (S,E)-3-(4-chlorophenyl)-4-phenyl-N-((R)-1-sulfamoylpropan-2-yl)-N′-((4-(trifluoromethyl)phenyl)sulfonyl)-4,5-dihydro-1H-pyrazole-1-carboximidamide] were, in that order, 6.30 to 7.00 and 6.30 to 7.00.
As to `CN1CCN(S(=O)(=O)CCN/C(=N\S(=O)(=O)c2ccc(Cl)cc2)N2C[C@H](c3ccccc3)C(c3ccc(F)cc3)=N2)CC1` [Compound 163, (S,E)-N′-((4-chlorophenyl)sulfonyl)-3-(4-fluorophenyl)-N-(2-((4-methylpiperazin-1-yl)sulfonyl)ethyl)-4-phenyl-4,5-dihydro-1H-pyrazole-1-carboximidamide], the values for the pIC50 in assay [1] and in assay [2] were 6.30 to 7.00 and above 7.00, respectively.
The like results for `NS(=O)(=O)CCNC(=NS(=O)(=O)c1cccc(Cl)c1)N1C[C@H](c2ccccc2)C(c2ccc(Cl)cc2)=N1` [Compound 31, (S)-3-(4-chlorophenyl)-N′-((3-chlorophenyl)sulfonyl)-4-phenyl-N-(2-sulfamoylethyl)-4,5-dihydro-1H-pyrazole-1-carboximidamide] were, in that order, above 7.00 and above 7.00.
The like results for `CN(CCNC(=NS(=O)(=O)c1ccc(Cl)cc1)N1C[C@H](c2ccccc2)C(c2ccc(Cl)cc2)=N1)S(N)(=O)=O` [Compound 187, (S,E)-3-(4-chlorophenyl)-N′-((4-chlorophenyl)sulfonyl)-N-(2-(methyl(sulfamoyl)amino)ethyl)-4-phenyl-4,5-dihydro-1H-pyrazole-1-carboximidamide] were, in that order, 6.30 to 7.00 and 6.30 to 7.00.
Turning to `C#Cc1ccccc1S(=O)(=O)N=C(NCCS(N)(=O)=O)N1C[C@H](c2ccccc2)C(c2ccc(Cl)cc2)=N1` [Compound 33, (S)-3-(4-chlorophenyl)-N′-((2-ethynylphenyl)sulfonyl)-4-phenyl-N-(2-sulfamoylethyl)-4,5-dihydro-1H-pyrazole-1-carboximidamide], the pIC50 – broadly, the IC50 on a negative log10 scale, so that one unit is a factor of ten – in assay [2] was 6.30 to 7.00.
For `Cn1ncc(S(=O)(=O)N=C(NCCS(N)(=O)=O)N2C[C@H](c3ccccc3)C(c3ccc(Cl)cc3)=N2)n1` [Compound 73, (S)-3-(4-chlorophenyl)-N′-((2-methyl-2H-1,2,3-triazol-4-yl)sulfonyl)-4-phenyl-N-(2-sulfamoylethyl)-4,5-dihydro-1H-pyrazole-1-carboximidamide], the pIC50 in assay [1] and in assay [2] was 6.30 to 7.00 each time.
Regarding `C#Cc1ccc(S(=O)(=O)N=C(NCCS(N)(=O)=O)N2C[C@H](c3ccccc3)C(c3ccc(Cl)cc3)=N2)cc1` [Compound 21, (S)-3-(4-chlorophenyl)-N′-((4-ethynylphenyl)sulfonyl)-4-phenyl-N-(2-sulfamoylethyl)-4,5-dihydro-1H-pyrazole-1-carboximidamide], the pIC50 in assay [1] and in assay [2] was above 7.00 in each case.
The molecule `NS(=O)(=O)O[C@H]1C[C@@H](N/C(=N\S(=O)(=O)c2ccc(C(F)(F)F)cc2)N2C[C@H](c3ccccc3)C(c3ccc(Cl)cc3)=N2)C1` [Compound 227, (1R,3s)-3-((S,E)-3-(4-chlorophenyl)-4-phenyl-N′-((4-(trifluoromethyl)phenyl)sulfonyl)-4,5-dihydro-1H-pyrazole-1-carboximidamido)cyclobutyl sulfamate] gave a pIC50 in assay [2] of 6.30 to 7.00.
For `NS(=O)(=O)CCN/C(=N\S(=O)(=O)c1ccc(F)cc1)N1C[C@H](c2ccccc2)C(c2ccc(Cl)cc2)=N1` [Compound 11, (S,E)-3-(4-chlorophenyl)-N′-((4-fluorophenyl)sulfonyl)-4-phenyl-N-(2-sulfamoylethyl)-4,5-dihydro-1H-pyrazole-1-carboximidamide], the pIC50 in assay [1] and in assay [2] was above 7.00 throughout.
On to `C[C@@H](CN/C(=N\S(=O)(=O)c1ccc(C(F)(F)F)cc1)N1C[C@H](c2ccccc2)C(c2ccc(F)cc2)=N1)S(N)(=O)=O` (single isomer, unassigned) [Compound 48], for which the pIC50 in assay [1] and in assay [2] was above 7.00 in each case.
Take `C[C@@H](CN/C(=N\S(=O)(=O)c1ccc(C(F)(F)F)cc1)N1C[C@H](c2ccccc2)C(c2ccc(Cl)cc2)=N1)S(N)(=O)=O` [Compound 18, (S,E)-3-(4-chlorophenyl)-4-phenyl-N-((S)-2-sulfamoylpropyl)-N′-((4-(trifluoromethyl)phenyl)sulfonyl)-4,5-dihydro-1H-pyrazole-1-carboximidamide]: the pIC50 was 6.30 to 7.00 in assay [1] and above 7.00 in assay [2].
For the molecule `CN(C)S(=O)(=O)CCN/C(=N\S(=O)(=O)c1ccc(Cl)cc1)N1C[C@H](c2ccccc2)C(c2ccc(Cl)cc2)=N1` [Compound 155, (S,E)-3-(4-chlorophenyl)-N′-((4-chlorophenyl)sulfonyl)-N-(2-(N,N-dimethylsulfamoyl)ethyl)-4-phenyl-4,5-dihydro-1H-pyrazole-1-carboximidamide], the pIC50 in assay [1] and in assay [2] was above 7.00 throughout.
For `NS(=O)(=O)C1CCN(/C(=N/S(=O)(=O)c2ccc(Cl)cc2)N2C[C@H](c3ccccc3)C(c3ccc(F)cc3)=N2)CC1` [Compound 111, (S,Z)-1-((((4-chlorophenyl)sulfonyl)imino)(3-(4-fluorophenyl)-4-phenyl-4,5-dihydro-1H-pyrazol-1-yl)methyl)piperidine-4-sulfonamide], the pIC50 in assay [1] and in assay [2] was below 6.30 in each case.
With `NS(=O)(=O)[C@H]1CC[C@@H](N/C(=N/S(=O)(=O)c2ccc(Cl)cc2)N2C[C@H](c3ccccc3)C(c3ccc(Cl)cc3)=N2)C1` (single isomer, unassigned) [Compound 145], the pIC50 in assay [1] and in assay [2] was 6.30 to 7.00 each time.
As to `NS(=O)(=O)[C@@H]1CC[C@@H](N/C(=N/S(=O)(=O)c2ccc(Cl)cc2)N2C[C@H](c3ccccc3)C(c3ccc(Cl)cc3)=N2)C1` (single isomer, unassigned) [Compound 141], the pIC50 in assay [1] and in assay [2] was 6.30 to 7.00 each time.
